Results taken from ChEMBL document CHEMBL5696441 (Nat Chem Biol, 2011).

Key:
[1] = biological target: Dual specificity mitogen-activated protein kinase kinase 4 (Homo sapiens) (UniProt P45985); test: Inhibition of MEK4 (unknown origin) assessed as remaining activity at 1 uM by Kinome scan method relative to control
[2] = biological target: Bone morphogenetic protein receptor type-1A (Homo sapiens) (UniProt P36894); test: Inhibition of BMPR1A (unknown origin) assessed as remaining activity at 1 uM by Kinome scan method relative to control
[3] = biological target: Receptor-interacting serine/threonine-protein kinase 4 (Homo sapiens) (UniProt P57078); test: Inhibition of RIPK4 (unknown origin) assessed as remaining activity at 1 uM by Kinome scan method relative to control
[4] = biological target: Phosphatidylinositol 4,5-bisphosphate 3-kinase catalytic subunit beta isoform (Homo sapiens) (UniProt P42338); test: Inhibition of PIK3CB (unknown origin) assessed as remaining activity at 1 uM by Kinome scan method relative to control
[5] = system: Phosphatidylinositol 4,5-bisphosphate 3-kinase catalytic subunit alpha isoform (Homo sapiens), P42336 [M1043I]; test: Inhibition of PIK3CA M1043I mutant (unknown origin) assessed as remaining activity at 1 uM by Kinome scan method relative to control
[6] = biological target: Atypical kinase COQ8A, mitochondrial (Homo sapiens) (UniProt Q8NI60); test: Inhibition of ADCK3 (unknown origin) assessed as remaining activity at 1 uM by Kinome scan method relative to control
[7] = biological target: T1, Serine/threonine-protein kinase DCLK2 (Homo sapiens) (UniProt Q8N568); test: Inhibition of DCAMKL2 (unknown origin) assessed as remaining activity at 1 uM by Kinome scan method relative to control
T1 sequence (whole entry): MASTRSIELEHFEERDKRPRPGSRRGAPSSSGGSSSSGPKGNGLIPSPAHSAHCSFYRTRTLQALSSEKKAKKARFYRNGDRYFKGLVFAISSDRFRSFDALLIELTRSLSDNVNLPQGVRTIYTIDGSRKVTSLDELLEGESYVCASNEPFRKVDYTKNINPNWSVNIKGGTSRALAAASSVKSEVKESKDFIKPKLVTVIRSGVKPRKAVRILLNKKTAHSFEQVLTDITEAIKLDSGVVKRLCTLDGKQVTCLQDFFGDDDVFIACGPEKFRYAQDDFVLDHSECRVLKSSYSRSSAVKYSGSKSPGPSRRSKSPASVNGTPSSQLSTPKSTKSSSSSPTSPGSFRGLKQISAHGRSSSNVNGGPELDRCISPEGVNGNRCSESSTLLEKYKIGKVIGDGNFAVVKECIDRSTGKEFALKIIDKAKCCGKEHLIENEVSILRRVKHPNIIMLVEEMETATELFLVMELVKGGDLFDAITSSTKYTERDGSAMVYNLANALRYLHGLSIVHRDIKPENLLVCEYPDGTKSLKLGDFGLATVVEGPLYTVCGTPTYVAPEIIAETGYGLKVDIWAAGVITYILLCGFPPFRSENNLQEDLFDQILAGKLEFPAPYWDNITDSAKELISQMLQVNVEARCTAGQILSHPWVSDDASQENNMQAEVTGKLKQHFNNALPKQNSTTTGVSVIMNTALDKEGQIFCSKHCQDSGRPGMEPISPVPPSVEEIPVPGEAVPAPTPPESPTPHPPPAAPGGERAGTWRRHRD

[8] = biological target: Activin receptor type-1-like (Homo sapiens) (UniProt P37023); test: Inhibition of ACVRL1 (unknown origin) assessed as remaining activity at 1 uM by Kinome scan method relative to control
[9] = biological target: T2, Aurora kinase A (Homo sapiens) (UniProt O14965); test: Inhibition of AURKA (unknown origin) assessed as remaining activity at 1 uM by Kinome scan method relative to control
T2 sequence (whole entry): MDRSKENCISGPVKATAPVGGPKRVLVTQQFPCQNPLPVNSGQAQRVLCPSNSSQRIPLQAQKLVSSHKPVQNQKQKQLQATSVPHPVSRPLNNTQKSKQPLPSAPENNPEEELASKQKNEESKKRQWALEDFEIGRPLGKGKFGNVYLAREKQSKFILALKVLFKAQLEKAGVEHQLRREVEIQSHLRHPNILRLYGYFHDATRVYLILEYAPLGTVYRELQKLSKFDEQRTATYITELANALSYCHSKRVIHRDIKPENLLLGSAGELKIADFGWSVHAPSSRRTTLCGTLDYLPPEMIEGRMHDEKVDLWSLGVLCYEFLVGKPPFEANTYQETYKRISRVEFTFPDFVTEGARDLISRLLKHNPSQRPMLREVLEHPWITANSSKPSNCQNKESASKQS

Homo sapiens = organism: Homo sapiens; test: Inhibition of ACVR1a (unknown origin) assessed as remaining activity at 1 uM by Kinome scan method relative to control
[10] = biological target: T3, Phosphorylase b kinase gamma catalytic chain, liver/testis isoform (Homo sapiens) (UniProt P15735); test: Inhibition of PHKG2 (unknown origin) assessed as remaining activity at 1 uM by Kinome scan method relative to control
T3 sequence (whole entry): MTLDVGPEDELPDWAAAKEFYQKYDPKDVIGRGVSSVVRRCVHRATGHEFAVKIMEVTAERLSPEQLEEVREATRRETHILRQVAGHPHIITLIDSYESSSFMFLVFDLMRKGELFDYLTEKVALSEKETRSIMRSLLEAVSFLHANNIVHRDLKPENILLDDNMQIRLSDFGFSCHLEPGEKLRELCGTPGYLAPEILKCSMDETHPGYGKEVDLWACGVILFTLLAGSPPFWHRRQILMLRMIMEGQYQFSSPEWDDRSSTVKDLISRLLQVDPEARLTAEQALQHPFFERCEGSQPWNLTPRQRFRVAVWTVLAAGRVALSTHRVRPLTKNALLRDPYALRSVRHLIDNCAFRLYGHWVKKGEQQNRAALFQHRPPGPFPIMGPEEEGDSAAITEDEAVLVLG

[11] = biological target: Dual specificity tyrosine-phosphorylation-regulated kinase 2 (Homo sapiens) (UniProt Q92630); test: Inhibition of DYRK2 (unknown origin) assessed as remaining activity at 1 uM by Kinome scan method relative to control
[12] = biological target: Dual specificity mitogen-activated protein kinase kinase 6 (Homo sapiens) (UniProt P52564); test: Inhibition of MEK6 (unknown origin) assessed as remaining activity at 1 uM by Kinome scan method relative to control
[13] = biological target: Aurora kinase B (Homo sapiens) (UniProt Q96GD4); test: Inhibition of AURKB (unknown origin) assessed as remaining activity at 1 uM by Kinome scan method relative to control
[14] = biological target: Mitogen-activated protein kinase 4 (Homo sapiens) (UniProt P31152); test: Inhibition of ERK4 (unknown origin) assessed as remaining activity at 1 uM by Kinome scan method relative to control
[15] = biological target: Insulin receptor (Homo sapiens) (UniProt P06213); test: Inhibition of INSR (unknown origin) assessed as remaining activity at 1 uM by Kinome scan method relative to control
[16] = biological target: Serine/threonine-protein kinase ICK (Homo sapiens) (UniProt Q9UPZ9); test: Inhibition of ICK (unknown origin) assessed as remaining activity at 1 uM by Kinome scan method relative to control
Sequence of Serine/threonine-protein kinase ICK (Homo sapiens) (Q9UPZ9 whole entry): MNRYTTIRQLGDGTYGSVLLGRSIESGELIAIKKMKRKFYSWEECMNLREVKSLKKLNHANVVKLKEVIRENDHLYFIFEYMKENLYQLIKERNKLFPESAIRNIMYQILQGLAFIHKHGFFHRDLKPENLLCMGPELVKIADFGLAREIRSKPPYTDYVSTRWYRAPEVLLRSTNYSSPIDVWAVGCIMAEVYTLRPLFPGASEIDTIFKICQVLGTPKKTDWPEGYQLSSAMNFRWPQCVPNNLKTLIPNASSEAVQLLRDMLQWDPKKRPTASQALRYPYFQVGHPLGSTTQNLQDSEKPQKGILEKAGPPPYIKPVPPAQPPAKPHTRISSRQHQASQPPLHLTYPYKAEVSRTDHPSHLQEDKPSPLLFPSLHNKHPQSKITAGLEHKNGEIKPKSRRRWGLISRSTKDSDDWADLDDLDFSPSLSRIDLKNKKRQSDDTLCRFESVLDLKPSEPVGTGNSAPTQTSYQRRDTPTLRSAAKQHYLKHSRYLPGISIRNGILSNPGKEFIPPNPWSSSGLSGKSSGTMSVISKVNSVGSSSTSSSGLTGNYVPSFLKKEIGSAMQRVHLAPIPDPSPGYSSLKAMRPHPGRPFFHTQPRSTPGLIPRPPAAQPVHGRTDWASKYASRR

Sequence of Dual specificity mitogen-activated protein kinase kinase 4 (Homo sapiens) (P45985 whole entry): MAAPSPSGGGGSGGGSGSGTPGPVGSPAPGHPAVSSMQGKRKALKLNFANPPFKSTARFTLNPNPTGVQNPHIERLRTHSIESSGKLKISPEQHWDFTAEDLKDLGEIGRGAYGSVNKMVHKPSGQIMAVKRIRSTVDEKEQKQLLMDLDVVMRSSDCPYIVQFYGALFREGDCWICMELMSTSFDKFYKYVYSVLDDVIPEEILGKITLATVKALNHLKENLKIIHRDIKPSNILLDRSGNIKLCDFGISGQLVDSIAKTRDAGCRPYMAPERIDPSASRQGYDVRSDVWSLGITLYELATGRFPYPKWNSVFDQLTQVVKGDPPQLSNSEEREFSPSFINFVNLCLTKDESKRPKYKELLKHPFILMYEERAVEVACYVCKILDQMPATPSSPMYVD
Sequence of Insulin receptor (Homo sapiens) (P06213 28-758 limits assumed): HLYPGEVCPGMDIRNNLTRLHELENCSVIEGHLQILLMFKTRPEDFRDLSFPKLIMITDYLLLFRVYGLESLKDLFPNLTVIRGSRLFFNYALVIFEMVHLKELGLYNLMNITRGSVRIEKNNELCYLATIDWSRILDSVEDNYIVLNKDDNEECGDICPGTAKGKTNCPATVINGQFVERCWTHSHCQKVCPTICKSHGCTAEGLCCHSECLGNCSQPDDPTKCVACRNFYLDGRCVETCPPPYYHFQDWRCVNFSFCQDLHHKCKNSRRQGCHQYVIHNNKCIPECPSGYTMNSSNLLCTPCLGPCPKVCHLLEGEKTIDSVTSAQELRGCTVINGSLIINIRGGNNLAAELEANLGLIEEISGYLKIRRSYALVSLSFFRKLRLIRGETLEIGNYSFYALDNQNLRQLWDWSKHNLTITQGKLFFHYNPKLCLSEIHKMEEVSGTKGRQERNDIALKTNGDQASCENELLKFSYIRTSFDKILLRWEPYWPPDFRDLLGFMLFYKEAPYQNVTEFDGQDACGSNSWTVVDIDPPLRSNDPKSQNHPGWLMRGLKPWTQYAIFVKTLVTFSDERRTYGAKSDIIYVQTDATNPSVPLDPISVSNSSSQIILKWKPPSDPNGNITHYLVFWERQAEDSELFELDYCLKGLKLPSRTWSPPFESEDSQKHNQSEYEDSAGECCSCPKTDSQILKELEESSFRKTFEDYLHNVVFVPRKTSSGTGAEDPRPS
Sequence of Insulin receptor (Homo sapiens) (P06213 763-1382 limits assumed): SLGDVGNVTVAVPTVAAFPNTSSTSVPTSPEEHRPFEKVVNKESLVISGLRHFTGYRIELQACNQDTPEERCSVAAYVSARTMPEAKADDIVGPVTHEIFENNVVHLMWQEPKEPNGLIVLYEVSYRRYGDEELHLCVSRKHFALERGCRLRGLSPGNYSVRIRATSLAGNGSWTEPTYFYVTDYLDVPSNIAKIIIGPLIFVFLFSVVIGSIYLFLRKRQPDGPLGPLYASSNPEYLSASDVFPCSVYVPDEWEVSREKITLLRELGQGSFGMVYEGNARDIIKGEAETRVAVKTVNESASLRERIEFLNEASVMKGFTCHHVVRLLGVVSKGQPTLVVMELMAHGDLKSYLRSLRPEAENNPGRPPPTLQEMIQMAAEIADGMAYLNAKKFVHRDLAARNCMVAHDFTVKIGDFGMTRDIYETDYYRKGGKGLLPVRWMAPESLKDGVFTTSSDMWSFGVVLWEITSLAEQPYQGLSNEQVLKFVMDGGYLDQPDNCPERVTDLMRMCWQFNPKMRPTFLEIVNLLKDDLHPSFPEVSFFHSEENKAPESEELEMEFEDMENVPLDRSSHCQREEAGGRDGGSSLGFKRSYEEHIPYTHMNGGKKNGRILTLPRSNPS
Sequence of Dual specificity mitogen-activated protein kinase kinase 6 (Homo sapiens) (P52564 whole entry): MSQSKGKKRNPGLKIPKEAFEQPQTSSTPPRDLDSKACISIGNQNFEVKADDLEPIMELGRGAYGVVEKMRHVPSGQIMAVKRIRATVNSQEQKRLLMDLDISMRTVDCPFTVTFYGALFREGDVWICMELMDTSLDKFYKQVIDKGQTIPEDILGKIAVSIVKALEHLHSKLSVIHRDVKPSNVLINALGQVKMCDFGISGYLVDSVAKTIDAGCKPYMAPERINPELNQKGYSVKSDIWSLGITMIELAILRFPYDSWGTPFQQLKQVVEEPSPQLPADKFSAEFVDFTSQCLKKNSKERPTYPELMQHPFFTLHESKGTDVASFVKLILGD
Sequence of Aurora kinase B (Homo sapiens) (Q96GD4 whole entry): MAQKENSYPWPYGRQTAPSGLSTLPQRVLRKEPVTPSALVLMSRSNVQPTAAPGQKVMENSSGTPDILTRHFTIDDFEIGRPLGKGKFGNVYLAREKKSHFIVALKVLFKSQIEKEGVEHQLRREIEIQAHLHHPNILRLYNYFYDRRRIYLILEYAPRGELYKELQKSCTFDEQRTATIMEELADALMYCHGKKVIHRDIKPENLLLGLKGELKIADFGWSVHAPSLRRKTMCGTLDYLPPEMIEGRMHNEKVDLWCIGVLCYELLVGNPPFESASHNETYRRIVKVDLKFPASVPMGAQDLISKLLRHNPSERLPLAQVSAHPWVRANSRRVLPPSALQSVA
Sequence of Activin receptor type-1-like (Homo sapiens) (P37023 whole entry): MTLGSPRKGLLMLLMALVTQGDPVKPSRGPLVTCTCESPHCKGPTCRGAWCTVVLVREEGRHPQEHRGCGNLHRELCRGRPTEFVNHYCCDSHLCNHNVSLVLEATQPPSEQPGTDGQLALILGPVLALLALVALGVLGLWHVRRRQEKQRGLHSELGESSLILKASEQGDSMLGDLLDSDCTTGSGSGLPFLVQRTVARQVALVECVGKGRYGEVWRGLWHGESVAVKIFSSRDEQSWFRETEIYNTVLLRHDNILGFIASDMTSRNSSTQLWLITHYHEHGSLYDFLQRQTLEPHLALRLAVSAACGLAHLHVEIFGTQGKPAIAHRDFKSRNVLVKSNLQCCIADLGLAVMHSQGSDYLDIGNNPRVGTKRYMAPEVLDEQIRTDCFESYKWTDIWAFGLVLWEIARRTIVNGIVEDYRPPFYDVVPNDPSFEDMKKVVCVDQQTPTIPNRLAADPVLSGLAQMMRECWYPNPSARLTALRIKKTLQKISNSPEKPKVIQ
Sequence of Phosphatidylinositol 4,5-bisphosphate 3-kinase catalytic subunit alpha isoform (Homo sapiens), P42336 [M1043I] (P42336 whole entry M1043I, canonical isoform): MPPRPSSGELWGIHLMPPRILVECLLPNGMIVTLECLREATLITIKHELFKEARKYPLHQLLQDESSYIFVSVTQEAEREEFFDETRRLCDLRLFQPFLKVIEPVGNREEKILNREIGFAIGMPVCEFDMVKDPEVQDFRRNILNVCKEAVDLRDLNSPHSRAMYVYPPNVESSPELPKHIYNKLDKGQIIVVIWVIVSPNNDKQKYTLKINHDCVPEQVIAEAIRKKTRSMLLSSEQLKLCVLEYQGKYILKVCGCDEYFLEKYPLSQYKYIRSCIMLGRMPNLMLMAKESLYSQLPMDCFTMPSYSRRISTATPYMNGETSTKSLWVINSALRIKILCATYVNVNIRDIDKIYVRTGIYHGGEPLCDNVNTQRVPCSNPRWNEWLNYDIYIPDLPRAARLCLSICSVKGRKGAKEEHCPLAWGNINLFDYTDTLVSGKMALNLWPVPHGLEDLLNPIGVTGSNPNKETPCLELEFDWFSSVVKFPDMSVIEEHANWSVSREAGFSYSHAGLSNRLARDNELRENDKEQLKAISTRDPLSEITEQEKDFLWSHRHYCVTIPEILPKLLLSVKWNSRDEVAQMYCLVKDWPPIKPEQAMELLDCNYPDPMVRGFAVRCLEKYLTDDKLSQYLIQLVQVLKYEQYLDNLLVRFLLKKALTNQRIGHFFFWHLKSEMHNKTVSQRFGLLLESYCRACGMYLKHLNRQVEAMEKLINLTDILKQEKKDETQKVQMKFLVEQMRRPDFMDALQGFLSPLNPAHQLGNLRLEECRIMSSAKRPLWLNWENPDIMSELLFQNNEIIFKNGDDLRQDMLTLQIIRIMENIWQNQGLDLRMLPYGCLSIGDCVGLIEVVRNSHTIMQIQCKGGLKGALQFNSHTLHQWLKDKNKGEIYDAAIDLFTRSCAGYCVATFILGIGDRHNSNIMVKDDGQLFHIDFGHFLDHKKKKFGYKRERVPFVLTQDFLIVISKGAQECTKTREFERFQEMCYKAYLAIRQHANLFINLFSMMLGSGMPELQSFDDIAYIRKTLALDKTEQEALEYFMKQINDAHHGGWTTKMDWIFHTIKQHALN

SMILES	Activity [1] [%]	Activity [2] [%]	Activity [3] [%]	Activity [4] [%]	Activity [5] [%]	Activity [6] [%]	Activity [7] [%]	Activity [8] [%]	Activity [9] [%]	Activity (Homo sapiens) [%]	Activity [10] [%]	Activity [11] [%]	Activity [12] [%]	Activity [13] [%]	Activity [14] [%]	Activity [15] [%]	Activity [16] [%]
Nc1ccccc1Nc1ccc2c(c1)CCc1ccccc1C2=O	64	98	80	88	84	78	98	89	93	98	98	75	76	97	97	83	83
O=C1c2ccc(Nc3ccc(F)cc3F)cc2CCc2ccc(OC[C@H](O)CO)cc21 [Skepinone-L]	78	100	90	96	90	88	88	100	100	98	96	86	82	96	100	99	99
